Reference: patent publication US9062043B2, “Fused tricyclic compounds as serine-threonine protein kinase and PARP modulators” (SENHWA BIOSCIENCES, INC., priority 2006, dated 2015)

Columns and labels:
recombinant human PIM-1 = recombinant human PIM-1 (Homo sapiens (Human), UniProt P11309); experiment: PIM-1 assay (cell-free, radiometric); assay type: biochemical
Protocol: The reactions are incubated for 10 min at 30° C., quenched with 100 ul of 0.75% Phosphoric acid, then transferred to and filtered through a Phosphocellulose filter plate (Millipore). After washing each well 5 times with 0.75% Phosphoric acid, Scintilation fluid (15 ul) is added to each well. The residual radioactivity is measured using a […].

[1] = Body weight of tumor-bearing xenograft animals; assay type: in vivo; conditions: BC-PC3 xenograft mice, IV and IP dosing
protein kinases [2] = biological target: protein kinases (Homo sapiens, UniProt O14965); experiment: Kinase inhibition, percentage of activity at 0.5 μM, standardized radiometric kinase assays; assay type: biochemical; conditions: Aurora-A(h);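 note: each kinase tested separately, with activity read as 33P-labelled substrate protein captured on filters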
protein kinases [3] = biological target: protein kinases (Homo sapiens, UniProt Q13882); experiment: as above; assay type: biochemical; conditions: BRK(h)
protein kinases [4] = biological target: protein kinases (Homo sapiens, UniProt Q9H422); experiment: as above; assay type: biochemical; conditions: HIPK3(h)
protein kinases [5] = biological target: protein kinases (Homo sapiens, UniProt P09619); experiment: as above; assay type: biochemical; conditions: PDGFRβ(h)
protein kinases [6] = biological target: protein kinases (Homo sapiens, UniProt Q04759); experiment: as above; assay type: biochemical; conditions: PKC0(h)
protein kinases [7] = biological target: protein kinases (Homo sapiens, UniProt P07332); experiment: as above; assay type: biochemical; conditions: Fes(h)
protein kinases [8] = biological target: protein kinases (Homo sapiens, UniProt Q9UEE5); experiment: as above; assay type: biochemical; conditions: DRAK1(h)
protein kinases [9] = biological target: protein kinases (Homo sapiens, UniProt P11362); experiment: as above; assay type: biochemical; conditions: FGFR1(h)
protein kinases (Homo sapiens, UniProt P11362), sequence (P11362 22-822 limits assumed): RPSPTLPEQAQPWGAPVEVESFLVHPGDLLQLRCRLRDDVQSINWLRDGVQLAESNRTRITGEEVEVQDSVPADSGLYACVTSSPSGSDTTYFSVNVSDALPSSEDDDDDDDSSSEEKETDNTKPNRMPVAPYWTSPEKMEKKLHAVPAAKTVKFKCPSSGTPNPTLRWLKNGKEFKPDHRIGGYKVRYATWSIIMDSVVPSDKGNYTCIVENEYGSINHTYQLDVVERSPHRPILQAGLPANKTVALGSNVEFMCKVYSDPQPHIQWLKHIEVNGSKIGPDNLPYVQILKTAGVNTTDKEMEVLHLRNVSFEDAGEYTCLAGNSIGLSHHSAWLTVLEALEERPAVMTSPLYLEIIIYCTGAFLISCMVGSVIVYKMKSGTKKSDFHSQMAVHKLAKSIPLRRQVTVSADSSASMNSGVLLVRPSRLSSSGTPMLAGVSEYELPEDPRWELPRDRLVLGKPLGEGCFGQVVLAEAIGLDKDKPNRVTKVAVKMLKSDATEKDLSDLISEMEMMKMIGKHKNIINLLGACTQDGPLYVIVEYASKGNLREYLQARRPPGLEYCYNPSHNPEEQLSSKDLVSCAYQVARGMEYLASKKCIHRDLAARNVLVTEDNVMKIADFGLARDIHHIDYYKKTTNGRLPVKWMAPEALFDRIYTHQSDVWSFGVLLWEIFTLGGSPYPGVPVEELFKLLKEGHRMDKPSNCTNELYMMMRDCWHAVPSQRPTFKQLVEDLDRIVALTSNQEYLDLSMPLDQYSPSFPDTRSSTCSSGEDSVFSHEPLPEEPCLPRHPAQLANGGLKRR

protein kinases [10] = biological target: protein kinases (Homo sapiens, UniProt P80192); experiment: as above; assay type: biochemical; conditions: MLK1(h)
protein kinases [11] = biological target: protein kinases (Homo sapiens, UniProt P16234); experiment: as above; assay type: biochemical; conditions: PDGFRα(h)
protein kinases (Homo sapiens, UniProt P16234), sequence (P16234 24-1089 limits assumed): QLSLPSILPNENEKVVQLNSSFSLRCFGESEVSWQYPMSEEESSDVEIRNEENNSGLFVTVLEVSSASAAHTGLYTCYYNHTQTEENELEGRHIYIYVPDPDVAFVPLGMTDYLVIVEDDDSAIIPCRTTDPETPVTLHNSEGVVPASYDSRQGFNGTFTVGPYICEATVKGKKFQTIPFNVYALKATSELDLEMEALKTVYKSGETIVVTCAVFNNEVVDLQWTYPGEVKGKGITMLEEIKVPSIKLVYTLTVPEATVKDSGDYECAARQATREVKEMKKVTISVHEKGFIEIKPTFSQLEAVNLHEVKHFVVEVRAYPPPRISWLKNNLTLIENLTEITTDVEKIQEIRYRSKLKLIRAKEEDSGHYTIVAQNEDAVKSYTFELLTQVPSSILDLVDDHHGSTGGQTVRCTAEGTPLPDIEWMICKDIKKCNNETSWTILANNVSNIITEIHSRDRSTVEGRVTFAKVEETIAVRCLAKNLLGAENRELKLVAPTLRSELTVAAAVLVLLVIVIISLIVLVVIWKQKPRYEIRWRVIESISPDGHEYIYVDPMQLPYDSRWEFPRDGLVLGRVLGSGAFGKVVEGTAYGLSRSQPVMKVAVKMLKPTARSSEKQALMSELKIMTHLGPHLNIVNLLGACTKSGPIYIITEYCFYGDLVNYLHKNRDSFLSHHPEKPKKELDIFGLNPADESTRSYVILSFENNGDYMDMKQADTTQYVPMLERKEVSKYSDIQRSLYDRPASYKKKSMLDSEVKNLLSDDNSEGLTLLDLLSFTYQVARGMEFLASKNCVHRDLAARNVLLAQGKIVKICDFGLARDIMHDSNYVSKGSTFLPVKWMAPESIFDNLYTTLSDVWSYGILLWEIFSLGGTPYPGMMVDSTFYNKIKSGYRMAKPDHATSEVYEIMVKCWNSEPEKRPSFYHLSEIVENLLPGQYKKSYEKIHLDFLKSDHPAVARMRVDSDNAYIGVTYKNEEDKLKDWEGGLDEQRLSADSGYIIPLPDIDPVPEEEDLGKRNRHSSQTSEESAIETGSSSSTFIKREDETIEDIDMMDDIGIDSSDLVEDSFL

protein kinases [12] = experiment: as above; assay type: biochemical; conditions: MAPK1(h)
protein kinases [13] = biological target: protein kinases (Homo sapiens, UniProt Q9UM73); experiment: as above; assay type: biochemical; conditions: ALK(h)
protein kinases [14] = biological target: protein kinases (Homo sapiens, UniProt O00418); experiment: as above; assay type: biochemical; conditions: eEF-2K(h)
protein kinases [15] = biological target: protein kinases (Homo sapiens, UniProt Q92630); experiment: as above; assay type: biochemical; conditions: DYRK2(h)
protein kinases [16] = biological target: protein kinases (Homo sapiens, UniProt O15111); experiment: as above; assay type: biochemical; conditions: IKKα(h)
protein kinases [17] = biological target: protein kinases (Homo sapiens, UniProt O43293); experiment: as above; assay type: biochemical; conditions: ZIPK(h)
protein kinases [18] = biological target: protein kinases (Homo sapiens, UniProt P08922); experiment: as above; assay type: biochemical; conditions: Ros(h)
protein kinases [19] = biological target: protein kinases (Homo sapiens, UniProt Q15418); experiment: as above; assay type: biochemical; conditions: Rsk1(h)
protein kinases [20] = biological target: protein kinases (Homo sapiens, UniProt Q14012); experiment: as above; assay type: biochemical; conditions: CaMKI(h)
protein kinases [21] = biological target: protein kinases (Homo sapiens, UniProt P35916); experiment: as above; assay type: biochemical; conditions: Flt4(h)
protein kinases [22] = biological target: protein kinases (Homo sapiens, UniProt P50613); experiment: as above; assay type: biochemical; conditions: CDK7/cyclinH/MAT1(h)
protein kinases (Homo sapiens, UniProt P50613), sequence (P50613 2-346 limits assumed): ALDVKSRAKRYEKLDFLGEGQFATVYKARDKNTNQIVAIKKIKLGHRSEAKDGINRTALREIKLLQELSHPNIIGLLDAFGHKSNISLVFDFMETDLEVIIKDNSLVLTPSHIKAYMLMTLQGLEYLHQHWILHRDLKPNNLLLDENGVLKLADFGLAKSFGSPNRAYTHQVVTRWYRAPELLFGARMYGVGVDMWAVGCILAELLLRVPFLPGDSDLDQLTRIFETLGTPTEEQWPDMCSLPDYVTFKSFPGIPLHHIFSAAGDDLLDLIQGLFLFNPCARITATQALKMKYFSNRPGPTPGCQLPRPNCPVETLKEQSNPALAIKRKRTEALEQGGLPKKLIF

protein kinases [23] = biological target: protein kinases (Homo sapiens, UniProt Q12866); experiment: as above; assay type: biochemical; conditions: Mer(h)
protein kinases (Homo sapiens, UniProt Q12866), sequence (Q12866 21-999 limits assumed): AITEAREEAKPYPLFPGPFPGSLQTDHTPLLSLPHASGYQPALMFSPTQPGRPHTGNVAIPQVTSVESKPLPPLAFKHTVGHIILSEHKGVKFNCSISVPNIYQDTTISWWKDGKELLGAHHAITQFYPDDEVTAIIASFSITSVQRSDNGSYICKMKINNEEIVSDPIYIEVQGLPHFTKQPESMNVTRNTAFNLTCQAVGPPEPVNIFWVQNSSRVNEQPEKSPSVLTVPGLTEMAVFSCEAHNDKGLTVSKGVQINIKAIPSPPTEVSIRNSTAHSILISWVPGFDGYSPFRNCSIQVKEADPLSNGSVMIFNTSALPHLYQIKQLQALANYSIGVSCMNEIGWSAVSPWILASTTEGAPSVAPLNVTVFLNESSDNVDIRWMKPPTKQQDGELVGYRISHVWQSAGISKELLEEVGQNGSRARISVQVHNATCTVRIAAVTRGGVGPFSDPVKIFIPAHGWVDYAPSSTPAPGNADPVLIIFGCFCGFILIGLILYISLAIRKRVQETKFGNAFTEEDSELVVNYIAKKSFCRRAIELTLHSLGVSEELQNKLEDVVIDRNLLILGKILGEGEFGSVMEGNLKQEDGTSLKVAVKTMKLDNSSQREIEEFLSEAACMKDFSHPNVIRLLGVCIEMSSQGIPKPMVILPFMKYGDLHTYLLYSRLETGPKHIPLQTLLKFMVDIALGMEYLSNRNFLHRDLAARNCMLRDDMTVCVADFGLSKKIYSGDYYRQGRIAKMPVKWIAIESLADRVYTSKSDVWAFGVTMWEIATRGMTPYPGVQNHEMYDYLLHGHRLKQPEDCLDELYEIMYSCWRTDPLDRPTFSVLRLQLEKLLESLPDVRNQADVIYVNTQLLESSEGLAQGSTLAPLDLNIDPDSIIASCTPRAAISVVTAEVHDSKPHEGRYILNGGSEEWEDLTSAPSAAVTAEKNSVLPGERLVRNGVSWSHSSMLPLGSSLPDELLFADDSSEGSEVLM

protein kinases [24] = biological target: protein kinases (Homo sapiens, UniProt P10721); experiment: as above; assay type: biochemical; conditions: cKit(h)
protein kinases (Homo sapiens, UniProt P10721), sequence (P10721 26-976 limits assumed): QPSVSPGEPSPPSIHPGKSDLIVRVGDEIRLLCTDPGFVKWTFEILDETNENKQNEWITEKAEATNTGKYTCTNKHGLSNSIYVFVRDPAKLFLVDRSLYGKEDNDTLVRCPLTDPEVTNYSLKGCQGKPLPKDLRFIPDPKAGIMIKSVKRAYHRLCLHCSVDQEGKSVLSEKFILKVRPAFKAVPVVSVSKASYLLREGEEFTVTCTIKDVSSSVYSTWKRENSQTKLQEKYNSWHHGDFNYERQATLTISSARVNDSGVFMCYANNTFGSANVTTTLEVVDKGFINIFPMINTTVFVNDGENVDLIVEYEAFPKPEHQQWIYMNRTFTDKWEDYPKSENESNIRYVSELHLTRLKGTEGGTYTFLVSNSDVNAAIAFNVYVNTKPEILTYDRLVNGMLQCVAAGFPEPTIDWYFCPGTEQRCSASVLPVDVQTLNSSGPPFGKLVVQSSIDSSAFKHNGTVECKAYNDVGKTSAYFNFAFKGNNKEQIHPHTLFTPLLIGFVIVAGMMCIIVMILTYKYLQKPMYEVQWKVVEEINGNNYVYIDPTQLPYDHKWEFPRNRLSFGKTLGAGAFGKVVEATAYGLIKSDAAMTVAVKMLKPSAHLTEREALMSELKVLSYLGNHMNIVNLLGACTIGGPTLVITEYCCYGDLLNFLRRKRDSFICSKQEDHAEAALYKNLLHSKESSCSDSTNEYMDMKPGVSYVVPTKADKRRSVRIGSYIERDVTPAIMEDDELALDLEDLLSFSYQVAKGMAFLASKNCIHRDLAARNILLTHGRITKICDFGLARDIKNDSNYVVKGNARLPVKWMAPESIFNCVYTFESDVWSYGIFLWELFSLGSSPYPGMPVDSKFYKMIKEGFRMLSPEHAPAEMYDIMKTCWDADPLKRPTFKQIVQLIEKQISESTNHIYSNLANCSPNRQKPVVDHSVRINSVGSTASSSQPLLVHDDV

protein kinases [25] = biological target: protein kinases (Homo sapiens, UniProt Q99683); experiment: as above; assay type: biochemical; conditions: ASK1(h)
protein kinases [26] = biological target: protein kinases (Homo sapiens, UniProt P12931); experiment: as above; assay type: biochemical; conditions: Src(1-530)(h)
protein kinases (Homo sapiens, UniProt P12931), sequence (P12931 2-536 limits assumed): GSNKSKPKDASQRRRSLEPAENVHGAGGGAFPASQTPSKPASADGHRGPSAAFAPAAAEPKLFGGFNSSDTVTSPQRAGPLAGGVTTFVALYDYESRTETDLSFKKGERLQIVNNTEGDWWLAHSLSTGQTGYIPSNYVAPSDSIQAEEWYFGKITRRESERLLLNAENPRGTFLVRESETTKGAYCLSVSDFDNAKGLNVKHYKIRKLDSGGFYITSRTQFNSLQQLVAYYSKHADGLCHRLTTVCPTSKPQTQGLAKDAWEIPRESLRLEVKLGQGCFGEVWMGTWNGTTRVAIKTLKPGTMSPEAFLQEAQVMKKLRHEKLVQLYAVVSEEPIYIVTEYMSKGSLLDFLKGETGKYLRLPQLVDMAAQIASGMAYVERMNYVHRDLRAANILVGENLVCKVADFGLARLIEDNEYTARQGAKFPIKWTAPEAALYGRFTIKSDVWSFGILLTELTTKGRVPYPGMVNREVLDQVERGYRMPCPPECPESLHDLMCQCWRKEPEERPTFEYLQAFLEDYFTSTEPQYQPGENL

protein kinases [27] = biological target: protein kinases (Homo sapiens, UniProt Q06418); experiment: as above; assay type: biochemical; conditions: Rse(h)
protein kinases [28] = biological target: protein kinases (Homo sapiens, UniProt Q16832); experiment: as above; assay type: biochemical; conditions: DDR2(h)
protein kinases [29] = biological target: protein kinases (Homo sapiens, UniProt Q14680); experiment: as above; assay type: biochemical; conditions: MELK(h)
protein kinases [30] = biological target: protein kinases (Homo sapiens, UniProt P35968); experiment: as above; assay type: biochemical; conditions: KDR(h)
protein kinases [31] = biological target: protein kinases (Homo sapiens, UniProt P06493); experiment: as above; assay type: biochemical; conditions: CDK1/cyclinB(h)
protein kinases [32] = biological target: protein kinases (Homo sapiens, UniProt Q9H4B4); experiment: as above; assay type: biochemical; conditions: Plk3(h)
protein kinases [33] = biological target: protein kinases (Homo sapiens, UniProt P54760); experiment: as above; assay type: biochemical; conditions: EphB4(h)
protein kinases [34] = biological target: protein kinases (Homo sapiens, UniProt Q04912); experiment: as above; assay type: biochemical; conditions: Ron(h)
protein kinases [35] = biological target: protein kinases (Homo sapiens, UniProt P43403); experiment: as above; assay type: biochemical; conditions: ZAP-70(h)
protein kinases [36] = biological target: protein kinases (Homo sapiens, UniProt P51955); experiment: as above; assay type: biochemical; conditions: NEK2(h)
protein kinases [37] = biological target: protein kinases (Homo sapiens, UniProt P17612); experiment: as above; assay type: biochemical; conditions: PKA(h)
protein kinases [38] = biological target: protein kinases (Homo sapiens, UniProt Q02750); experiment: as above; assay type: biochemical; conditions: MEK1(h)
protein kinases [39] = biological target: protein kinases (Homo sapiens, UniProt P11309); experiment: as above; assay type: biochemical; conditions: Pim-1(h)

recombinant human PIM-1, sequence (P11309 whole entry): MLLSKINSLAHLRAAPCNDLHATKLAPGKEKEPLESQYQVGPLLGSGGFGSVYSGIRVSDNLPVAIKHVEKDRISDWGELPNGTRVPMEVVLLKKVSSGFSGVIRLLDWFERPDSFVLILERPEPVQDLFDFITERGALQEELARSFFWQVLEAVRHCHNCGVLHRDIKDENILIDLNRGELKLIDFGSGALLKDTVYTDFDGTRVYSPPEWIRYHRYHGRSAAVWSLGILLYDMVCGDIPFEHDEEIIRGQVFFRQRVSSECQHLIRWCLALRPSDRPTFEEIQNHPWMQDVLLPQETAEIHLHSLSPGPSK

## C#Cc1cccc(Nc2nc3cc(C(=O)O)ccc3c3cncnc23)c1 [compound A2]
Recombinant human PIM-1
  IC50: 0.189 µM
[1]
  Body weight (FIG. 4B): not significantly altering body weight
Protein kinases [2]
  activity at 0.5 µM: 94%
Protein kinases [3]
  activity at 0.5 µM: 110%
Protein kinases [4]
  activity at 0.5 µM: 10%
Protein kinases [5]
  activity at 0.5 µM: 110%
Protein kinases [6]
  activity at 0.5 µM: 111%
Protein kinases [7]
  activity at 0.5 µM: 139%
Protein kinases [8]
  activity at 0.5 µM: 62%
Protein kinases [9]
  activity at 0.5 µM: 103%
Protein kinases [10]
  activity at 0.5 µM: 80%
Protein kinases [11]
  activity at 0.5 µM: 109%
Protein kinases [12]
  % activity at 0.5 μM: 95%
Protein kinases [13]
  activity at 0.5 µM: 112%
Protein kinases [14]
  activity at 0.5 µM: 106%
Protein kinases [15]
  activity at 0.5 µM: 50%
Protein kinases [16]
  activity at 0.5 µM: 101%
Protein kinases [17]
  activity at 0.5 µM: 12%
Protein kinases [18]
  activity at 0.5 µM: 110%
Protein kinases [19]
  activity at 0.5 µM: 78%
Protein kinases [20]
  activity at 0.5 µM: 104%
Protein kinases [21]
  activity at 0.5 µM: -1%
Protein kinases [22]
  activity at 0.5 µM: 77%
Protein kinases [23]
  activity at 0.5 µM: 46%
Protein kinases [24]
  activity at 0.5 µM: 114%
Protein kinases [25]
  activity at 0.5 µM: 116%
Protein kinases [26]
  activity at 0.5 µM: 101%
Protein kinases [27]
  activity at 0.5 µM: 109%
Protein kinases [28]
  activity at 0.5 µM: 109%
Protein kinases [29]
  activity at 0.5 µM: 49%
Protein kinases [30]
  activity at 0.5 µM: 67%
Protein kinases [31]
  activity at 0.5 µM: 52%
Protein kinases [32]
  activity at 0.5 µM: 106%
Protein kinases [33]
  activity at 0.5 µM: 144%
Protein kinases [34]
  activity at 0.5 µM: 106%
Protein kinases [35]
  activity at 0.5 µM: 118%
Protein kinases [36]
  activity at 0.5 µM: 77%
Protein kinases [37]
  activity at 0.5 µM: 90%
Protein kinases [38]
  activity at 0.5 µM: 136%
Protein kinases [39]
  activity at 0.5 µM: 27%
